We go through three compounds from ChEMBL document CHEMBL5120826, “Effects of β-lapachone and β-nor-lapachone on multidrug efflux transporters and biofilms of Candida glabrata” (Bioorg Med Chem, 2022).

Assay [1] relates to Saccharomyces cerevisiae. In words: Antifungal activity against fluconazole resistant Saccharomyces cerevisiae overexpressing CgCdr1p transporter assessed as reduction in fungal growth incubated for 48 hrs by checkboard assay based microplate reader analysis. The assay is classed as functional.
Assay [2] has as its system Saccharomyces cerevisiae. In words: Antifungal activity against fluconazole resistant Saccharomyces cerevisiae overexpressing CgCdr2p transporter assessed as reduction in fungal growth incubated for 48 hrs by checkboard assay based microplate reader analysis. Format: functional.
Assay [3] relates to Saccharomyces cerevisiae. In words: Indifferent antifungal activity against fluconazole resistant Saccharomyces cerevisiae overexpressing CgCdr1p transporter assessed as fractional inhibitory concentration in presence of fluconazole incubated for 48 hrs by checkboard assay based microplate reader analysis. Format: functional.
Assay [4] has as its system Saccharomyces cerevisiae. In words: Indifferent antifungal activity against fluconazole resistant Saccharomyces cerevisiae overexpressing CgCdr1p transporter assessed as reduction in fungal growth incubated for 48 hrs in presence of lapachone by checkboard assay based microplate reader analysis. Format: functional.
Assay [5] relates to Saccharomyces cerevisiae. In words: Indifferent antifungal activity against fluconazole resistant Saccharomyces cerevisiae overexpressing CgCdr2p transporter assessed as reduction in fungal growth incubated for 48 hrs in presence of fluconazole by checkboard assay based microplate reader analysis. Format: functional.
The subject of assay [6] is Saccharomyces cerevisiae. Nature of the assay: Indifferent antifungal activity against fluconazole resistant Saccharomyces cerevisiae overexpressing CgCdr1p transporter assessed as fractional inhibitory concentration incubated for 48 hrs in presence of lapachone by checkboard assay based microplate reader analysis. The assay is classed as functional.
Assay [7] concerns Saccharomyces cerevisiae. In words: Indifferent antifungal activity against fluconazole resistant Saccharomyces cerevisiae overexpressing CgCdr2p transporter assessed as fractional inhibitory concentration index incubated for 48 hrs by checkboard assay based microplate reader analysis. The assay is classed as functional.
For assay [8], the system named is Saccharomyces cerevisiae. Nature of the assay: Indifferent antifungal activity against fluconazole resistant Saccharomyces cerevisiae overexpressing CgCdr1p transporter assessed as fractional inhibitory concentration index incubated for 48 hrs by checkboard assay based microplate reader analysis. Format: functional.
The subject of assay [9] is Saccharomyces cerevisiae. Nature of the assay: Indifferent antifungal activity against fluconazole resistant Saccharomyces cerevisiae overexpressing CgCdr1p transporter assessed as reduction in fungal growth incubated for 48 hrs in presence of fluconazole by checkboard assay based microplate reader analysis. Format: functional.
Assay [10] deals with Saccharomyces cerevisiae. In words: Indifferent antifungal activity against fluconazole resistant Saccharomyces cerevisiae overexpressing CgCdr2p transporter assessed as fractional inhibitory concentration incubated for 48 hrs in presence of lapachone by checkboard assay based microplate reader analysis. Format: functional.
Assay [11] deals with Saccharomyces cerevisiae. In words: Indifferent antifungal activity against fluconazole resistant Saccharomyces cerevisiae overexpressing CgCdr2p transporter assessed as fractional inhibitory concentration in presence of fluconazole incubated for 48 hrs by checkboard assay based microplate reader analysis. Format: functional.
Assay [12] relates to Saccharomyces cerevisiae. Nature of the assay: Indifferent antifungal activity against fluconazole resistant Saccharomyces cerevisiae overexpressing CgCdr2p transporter assessed as reduction in fungal growth incubated for 48 hrs in presence of lapachone by checkboard assay based microplate reader analysis. The assay is classed as functional.
Assay [13] has as its system Saccharomyces cerevisiae. Nature of the assay: Antifungal activity against fluconazole resistant Saccharomyces cerevisiae overexpressing CgCdr1p transporter assessed as reduction in fungal growth at lower concentration incubated for 48 hrs by serial dilution method. The assay is classed as functional, organism-based.

≈ marks a conversion by molar mass, not a printed value. Calls of active or inactive are those of the source. No cut-off for these calls is given here.

`CC1(C)CC2=C(O1)C(=O)c1ccccc1C2=O`: the MIC in the assay with Saccharomyces cerevisiae [1] is greater than 100 mg/L; in the assay with Saccharomyces cerevisiae [2], 12.5 mg/L (≈ 54.8 µM); in the assay on Saccharomyces cerevisiae [4], greater than 100 mg/L; in the assay with Saccharomyces cerevisiae [5], 62.5 mg/L; with Saccharomyces cerevisiae [9] it was 500 mg/L; in the assay on Saccharomyces cerevisiae [12] it was 12.5 mg/L. Besides, the FIC with Saccharomyces cerevisiae [3], in the assay with Saccharomyces cerevisiae [6], in the assay on Saccharomyces cerevisiae [10] and with Saccharomyces cerevisiae [11] was 1 µg/mL each time. Moreover, the “fractional inhibitory concentration index (FICI)” value in the assay with Saccharomyces cerevisiae [7] and in the assay on Saccharomyces cerevisiae [8] was 2 throughout.
Regarding `OC(Cn1cncn1)(Cn1cncn1)c1ccc(F)cc1F`, in the assay with Saccharomyces cerevisiae [13], the outcome was Active.
With `CC1(C)CCC2=C(O1)C(=O)c1ccccc1C2=O` [ALPHA-LAPACHONE], the minimum inhibitory concentration (MIC) was greater than 100 mg/L in the assay with Saccharomyces cerevisiae [1]; greater than 62.5 mg/L in the assay on Saccharomyces cerevisiae [2]; greater than 100 mg/L in the assay on Saccharomyces cerevisiae [4]; 62.5 mg/L with Saccharomyces cerevisiae [5]; 500 mg/L in the assay with Saccharomyces cerevisiae [9]; greater than 100 mg/L with Saccharomyces cerevisiae [12]. Besides, the FIC with Saccharomyces cerevisiae [3], in the assay with Saccharomyces cerevisiae [6], with Saccharomyces cerevisiae [10] and in the assay on Saccharomyces cerevisiae [11] was 1 µg/mL throughout. Also, the “fractional inhibitory concentration index (FICI)” value in the assay on Saccharomyces cerevisiae [7] and in the assay with Saccharomyces cerevisiae [8] was 2 in each case.
